Key:
[1] = target: KRAS G12D (Homo sapiens, UniProt P01116, G12D); test: GDP-GTP exchange assay (bodipy-GDP/GppNHp, SOS1), KRAS G12D; type: biochemical; settings: bodipy-loaded KRAS G12D 2.5 nM, 4 h pre-incubation; value for the most potent isomer quoted for certain compounds; read-out: G12D (KRAS G12D exchange assay IC50)
[2] = target: KRAS G12V (Homo sapiens, UniProt P01116, G12V); test: GDP-GTP exchange assay (bodipy-GDP/GppNHp, SOS1), KRAS G12V; type: biochemical; settings: KRAS G12V mutant; value for the most potent isomer quoted for certain compounds; read-out: G12V (KRAS G12V exchange assay IC50)
KRAS G12V, sequence (P01116 1-188 isoform P01116-2 G12V): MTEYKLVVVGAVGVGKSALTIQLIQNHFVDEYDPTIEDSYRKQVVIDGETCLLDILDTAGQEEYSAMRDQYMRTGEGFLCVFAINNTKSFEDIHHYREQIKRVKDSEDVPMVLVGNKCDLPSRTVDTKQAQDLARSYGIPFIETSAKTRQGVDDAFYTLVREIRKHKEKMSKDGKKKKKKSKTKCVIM

KRAS G12D, sequence (P01116 1-188 isoform P01116-2 G12D): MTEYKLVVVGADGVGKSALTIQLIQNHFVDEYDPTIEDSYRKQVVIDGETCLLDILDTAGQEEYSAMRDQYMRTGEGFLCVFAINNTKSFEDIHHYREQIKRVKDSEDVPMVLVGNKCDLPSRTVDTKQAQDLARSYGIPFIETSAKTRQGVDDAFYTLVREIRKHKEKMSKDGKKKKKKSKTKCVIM

Row | SMILES | IC50 [1] | IC50 [2]
1 | Cc1nc2c(F)c(-c3cccc(Cl)c3Cl)c(CCC#N)cc2c2c1cc([C@H]1C[C@H](OCc3cccc(S(C)(=O)=O)c3)CN1C(=O)C1CC1)n2[C@H]1[C@H]2CN[C@@H]1C2 [Example 164] | ≤ 100 nM | ≤ 100 nM
2 | Cc1nc2c(F)c(-c3cccc(Cl)c3Cl)c(CCC#N)cc2c2c1cc([C@H]1C[C@H](OCc3cccc(C(=O)O)c3)CN1C(=O)C1CC1)n2[C@H]1[C@H]2CN[C@@H]1C2 [Example 165] | ≤ 100 nM | ≤ 100 nM
3 | Cc1cc(C)cc(O[C@H]2C[C@H](c3cc4c(C)nc5c(F)c(-c6cccc(Cl)c6Cl)c(CCC#N)cc5c4n3[C@H]3[C@H]4CN[C@@H]3C4)N(C(=O)C3CC3)C2)c1 [Example 166] | ≤ 100 nM | ≤ 100 nM
4 | CCc1cccc(O[C@H]2C[C@H](c3cc4c(C)nc5c(F)c(-c6cccc(Cl)c6Cl)c(CCC#N)cc5c4n3[C@H]3[C@H]4CN[C@@H]3C4)N(C(=O)C3CC3)C2)c1 [Example 167] | ≤ 100 nM | ≤ 100 nM
5 | Cc1nc2c(F)c(-c3cccc(Cl)c3Cl)c(CCC#N)cc2c2c1cc([C@H]1C[C@H](Oc3cccc(C(C)C)c3)CN1C(=O)C1CC1)n2[C@H]1[C@H]2CN[C@@H]1C2 [Example 168] | 100 to 1000 nM | ≤ 100 nM
6 | Cc1nc2c(F)c(-c3cccc(Cl)c3Cl)c(CCC#N)cc2c2c1cc([C@H]1C[C@H](Oc3cccc(C4CC4)c3)CN1C(=O)C1CC1)n2[C@H]1[C@H]2CN[C@@H]1C2 [Example 169] | ≤ 100 nM | ≤ 100 nM
7 | Cc1nc2c(F)c(-c3cccc(Cl)c3Cl)c(CCC#N)cc2c2c1cc([C@H]1C[C@H](Oc3ccn(C)n3)CN1C(=O)C1CC1)n2[C@H]1[C@H]2CN[C@@H]1C2 [Example 170] | ≤ 100 nM | ≤ 100 nM
8 | Cc1nc2c(F)c(-c3cccc(Cl)c3Cl)c(CCC#N)cc2c2c1cc([C@H]1C[C@H](Oc3cccc(OC(F)(F)F)c3)CN1C(=O)C1CC1)n2[C@H]1[C@H]2CN[C@@H]1C2 [Example 171] | ≤ 100 nM | ≤ 100 nM
9 | Cc1nc2c(F)c(-c3cccc(Cl)c3Cl)c(CCC#N)cc2c2c1cc([C@H]1C[C@H](Oc3cccc(C(F)(F)F)c3)CN1C(=O)C1CC1)n2[C@H]1[C@H]2CN[C@@H]1C2 [Example 172] | ≤ 100 nM | ≤ 100 nM
10 | CNC(=O)c1cccc(O[C@H]2C[C@H](c3cc4c(C)nc5c(F)c(-c6cccc(Cl)c6Cl)c(CCC#N)cc5c4n3[C@H]3[C@H]4CN[C@@H]3C4)N(C(=O)C3CC3)C2)c1 [Example 173] | ≤ 100 nM | ≤ 100 nM
11 | Cc1nc2c(F)c(-c3cccc(Cl)c3Cl)c(CCC#N)cc2c2c1cc([C@H]1C[C@H](Oc3cccc(C(=O)N(C)C)c3)CN1C(=O)C1CC1)n2[C@H]1[C@H]2CN[C@@H]1C2 [Example 174] | ≤ 100 nM | ≤ 100 nM
12 | Cc1nc2c(F)c(-c3cccc(Cl)c3Cl)c(CCC#N)cc2c2c1cc([C@H]1C[C@H](Oc3ccnn3C)CN1C(=O)C1CC1)n2[C@H]1[C@H]2CN[C@@H]1C2 [Example 175] | ≤ 100 nM | ≤ 100 nM
13 | CC(O)c1nc2c(F)c(-c3cccc(Cl)c3Cl)c(CCC#N)cc2c2c1cc([C@H]1C[C@H](OCc3ccc(F)cc3C#N)CN1C(=O)C1CC1)n2[C@H]1[C@H]2CN[C@@H]1C2 (stereo partly shown) [Example 178] | ≤ 100 nM | ≤ 100 nM
14 | Cc1nc2c(F)c(-c3cccc(Cl)c3Cl)c(CCC#N)cc2c2c1cc([C@H]1C[C@H](n3cc(C4CC4)nn3)CN1C(=O)C1CC1)n2[C@H]1[C@H]2CN[C@@H]1C2 [Example 179] | ≤ 100 nM | ≤ 100 nM
15 | Cc1nc2c(F)c(-c3cccc(Cl)c3Cl)c(CCC#N)cc2c2c1cc([C@H]1C[C@H](n3cc(C4CCCO4)nn3)CN1C(=O)C1CC1)n2[C@H]1C2CNC1C2 (stereo partly shown) [Example 180] | ≤ 100 nM | ≤ 100 nM
16 | Cc1nc2c(F)c(-c3cccc(Cl)c3Cl)c(CCC#N)cc2c2c1cc([C@H]1C[C@H](n3cc(C4CCOC4)nn3)CN1C(=O)C1CC1)n2[C@H]1C2CNC1C2 (stereo partly shown) [Example 181] | ≤ 100 nM | ≤ 100 nM
17 | Cc1nc2c(F)c(-c3cccc(Cl)c3Cl)c(CCC#N)cc2c2c1cc([C@H]1C[C@H](n3cc(C4CCCC4)nn3)CN1C(=O)C1CC1)n2[C@H]1[C@H]2CN[C@@H]1C2 [Example 183] | ≤ 100 nM | ≤ 100 nM
18 | Cc1nc2c(F)c(-c3cccc(Cl)c3Cl)c(CCC#N)cc2c2c1cc([C@H]1C[C@H](n3cc([C@H](C)O)nn3)CN1C(=O)C1CC1)n2[C@H]1C2CNC1C2 (stereo partly shown) [Example 184] | ≤ 100 nM | ≤ 100 nM
19 | CC(O)c1nc2c(F)c(-c3cccc(Cl)c3Cl)c(CCC#N)cc2c2c1cc([C@H]1C[C@H](OCc3c(F)cccc3F)CN1C(=O)C1(C)CC1)n2[C@H]1[C@H]2CN[C@@H]1C2 (stereo partly shown) [Example 185] | ≤ 100 nM | ≤ 100 nM
20 | COc1ccc(F)c(CO[C@H]2C[C@H](c3cc4c(C)nc5c(F)c(-c6cccc(Cl)c6Cl)c(CCC#N)cc5c4n3[C@H]3[C@H]4CN[C@@H]3C4)N(C(=O)C3CC3)C2)c1F [Example 186] | ≤ 100 nM | ≤ 100 nM
